Assay results taken from patent US20260115197A1, “TREATMENT COMPOSITION FOR INHIBITING SYSTEMIC SCLEROSIS VIMENTIN MUTANT PROTEIN ACTIVITY BY USING STAT6 INHIBITOR” (THE CATHOLIC UNIVERSITY OF KOREA INDUSTRY-ACADEMIC …, priority 2022, published 2026).

Experiments:
M2 macrophages = experiment: M2 macrophage activity in blood of bleomycin-induced systemic sclerosis animal model, flow cytometry; type: in vivo, B6 mouse; conditions: 10 mg/kg orally daily; BLM-induced; vs Vehicle group
Description: (§1) To determine whether the STAT6 inhibitor of the present disclosure alleviated systemic sclerosis, a systemic sclerosis animal model was constructed. Specifically, a 2×2 cm area on the nape of the neck of the B6 mouse was shaved using a clipper, and then subcutaneously injected with 100 μL of PBS containing 50 μg of bleomycin (BLM) daily for 2 weeks to induce systemic sclerosis. One week after the start of BLM administration, 200 μL of vehicle solution (10% DMSO, 40% PEG300, 5% tween 80 and 45% Saline) containing the STAT6 inhibitor at a concentration of 10 mg/kg was orally administered daily. Thereafter, the blood from the mouse was collected on week 1 and week 5 after induction of systemic sclerosis, and the activity of M2 macrophages capable of inducing fibrosis from the collected blood was analyzed using flow cytometry. As a control group, a wild-type mouse (WT) and a Vehicle group that was induced with systemic sclerosis but not treated with a drug were used.

[1] = system: cell surface Vimentin (CSV) and fibrosis factors aSMA, Col1, IL-17; experiment: Fibrosis factors and cell surface Vimentin in skin tissue of systemic sclerosis mouse, immunohistochemical staining; type: in vivo, B6 mouse; conditions: 10 mg/kg orally daily, vs Vehicle group
Description: as §1
In autoimmune diseases, it has been reported that Vimentin played an important role in cell interaction and the function of the immune system, and mutated or natural-type Vimentin was involved in the inflammatory responses and the pathogenesis of various autoimmune diseases (Autoimmun Rev. 2018 September: 17 (9): 926-934. doi: 10.1016/j.autrev.2018.04.004. Epub 2018 Jul. 17.), and thus, even in systemic sclerosis, the effect of the STAT6 inhibitor on the expression pattern of cell surface Vimentin (CSV) was also identified. Specifically, the expression of fibrosis factors aSMA, Col1, and IL-17 and CSV-positive cells in the skin tissue obtained in Example 4-1 was identified by immunohistochemical staining.

[2] = system: pSTAT6 and CD8 positive T cells; experiment: pSTAT6 and CD8 positive T cells in skin and lung tissues of systemic sclerosis mouse, confocal microscopy; type: in vivo, B6 mouse; conditions: 10 mg/kg orally daily, vs Vehicle group
spleen single cells = experiment: Control of fibrosis-related immunocytes in TGF-β-treated spleen single cells, flow cytometry; type: cell-based, B6 mouse; conditions: 10 nM, with 10 ng/ml TGF-β, 72 hours; vs TGF-β alone
Description: In order to identify an effect of inhibiting signal transducer and activator of transcription 6 (STAT6) on systemic sclerosis of the present disclosure, the control effect of immunocytes related to fibrosis was identified. Specifically, spleen single cells were obtained from a B6 mouse, treated with 10 ng/ml of transforming growth factor-β (TGF-β) and 10 nM of a STAT6 inhibitor (YM-341619, Chemical Formula 1), and then cultured for 72 hours. The expression of profibrotic T cells, M2 macrophages, and Treg related to systemic sclerosis was analyzed by flow cytometry. In addition, the expression ratio of M2 macrophages and M1 macrophages was identified to identify the control of immunocytes. As a control group, an untreated control group (Nil) and a group treated with TGF-β alone were used.

[3] = system: systemic sclerosis animal model; experiment: Skin fibrosis in systemic sclerosis animal model, H&E staining; type: in vivo, B6 mouse; conditions: 10 mg/kg orally daily; BLM-induced; vs Vehicle group
Description: as §1
To determine whether the STAT6 inhibitor of the present disclosure alleviated systemic sclerosis, inhibition of skin fibrosis was identified. […]

[4] = system: human dermal fibroblast line; experiment: Expression of fibrosis genes in TGF-β-treated fibroblasts, real-time PCR; type: cell-based; conditions: with 10 ng/ml TGF-β, 24 hours; vs TGF-β alone
Description: In order to identify the effect of STAT6 inhibition on systemic sclerosis of the present disclosure, inhibition of fibrosis genes of fibroblasts was identified. Specifically, a human dermal fibroblast line was treated with 10 ng/ml of TGF-β and […] of an STAT6 inhibitor and then cultured for 24 hours. Thereafter, the expression of fibrosis factors, TGF-β, Col1a1 (Collagen, type I, alpha 1), and α-SMA 10 (alpha smooth muscle actin), was identified by real-time PCR.

[5] = system: CD103 and CD8 positive cells (CD8 TRM); experiment: IL-17 or IFNγ expression CD103 and CD8 positive cells (CD8 TRM) in skin of Vimentin antigen-specific systemic sclerosis animal model, confocal microscope; type: in vivo, SKG mouse; conditions: 10 mg/kg subcutaneously three times a week; vs vim SSc group
Description: In systemic sclerosis, Vimentin increased the disease symptom activity of systemic sclerosis, and thus, the effect of the STAT6 inhibitor was evaluated in a Vimentin antigen-specific systemic sclerosis animal model. Specifically, systemic sclerosis was induced by immunizing a 8-week-old SKG mouse with a Vimentin protein as an antigen and then subcutaneously injecting 100 μL of Bleomycin (BLM) six times a week for two weeks. Thereafter, on week 2 of systemic sclerosis induction, the mouse was secondary immunized with the Vimentin protein, and then subcutaneously injected with the STAT6 inhibitor of the present disclosure three times a week at a concentration of 10 mg/kg until week 5 from the starting of the experiment. Thereafter, at the end point of the experiment, the mouse was humanely sacrificed, and skin and lung tissues were obtained, and then the thickness of the skin dermal layer was identified by H&E staining, and the expression of CSV in the lung tissue was identified by immunohistochemical staining. The specific experimental process was illustrated in FIG. 9, and as a control group, a Vimentin antigen-specific systemic sclerosis animal model (vim SSc group) with increased disease symptom activity by a Vimentin antigen was used. […]

[6] = system: Vimentin antigen-specific systemic sclerosis animal model; experiment: Skin fibrosis and CSV expression in Vimentin antigen-specific systemic sclerosis animal model; type: in vivo, SKG mouse; conditions: 10 mg/kg subcutaneously three times a week until week 5; vs vim SSc group
Description: In systemic sclerosis, Vimentin increased the disease symptom activity of systemic sclerosis, and thus, the effect of the STAT6 inhibitor was evaluated in a Vimentin antigen-specific systemic sclerosis animal model. Specifically, systemic sclerosis was induced by immunizing a 8-week-old SKG mouse with a Vimentin protein as an antigen and then subcutaneously injecting 100 μL of Bleomycin (BLM) six times a week for two weeks. Thereafter, on week 2 of systemic sclerosis induction, the mouse was secondary immunized with the Vimentin protein, and then subcutaneously injected with the STAT6 inhibitor of the present disclosure three times a week at a concentration of 10 mg/kg until week 5 from the starting of the experiment. Thereafter, at the end point of the experiment, the mouse was humanely sacrificed, and skin and lung tissues were obtained, and then the thickness of the skin dermal layer was identified by H&E staining, […] The specific experimental process was illustrated in FIG. 9, and as a control group, a Vimentin antigen-specific systemic sclerosis animal model (vim SSc group) with increased disease symptom activity by a Vimentin antigen was used.

[7] = system: systemic sclerosis animal model; experiment: Pulmonary fibrosis in systemic sclerosis animal model, H&E staining; type: in vivo, B6 mouse; conditions: 10 mg/kg orally daily; BLM-induced; vs Vehicle group
Description: as §1
It has been identified whether the STAT6 inhibition of the present disclosure inhibited pulmonary fibrosis in systemic sclerosis. Specifically, a lung tissue was obtained from the mouse sacrificed in the Example 4-1 above, and subjected to H&E staining to determine the histological score for pulmonary fibrosis.

[8] = system: cell surface Vimentin (CSV) and fibrosis factors aSMA, Col1, IL-17; experiment: Fibrosis factors and cell surface Vimentin in lung tissue of systemic sclerosis mouse, immunohistochemical staining; type: in vivo, B6 mouse; conditions: 10 mg/kg orally daily, vs Vehicle group
Description: as §1
It was identified whether the STAT6 inhibition of the present disclosure inhibited cell surface Vimentin in the tissue. Specifically, the expression of fibrosis factors aSMA, Col1, and IL-17 and CSV-positive cells in the lung tissue obtained in Example 4-2 was identified by immunohistochemical staining.

NC(=O)c1cnc(Nc2ccc(N3CCOCC3)cc2)nc1NCc1c(F)ccc(F)c1F [STAT6 inhibitor, YM-341619]
activity of M2 macrophages capable of inducing fibrosis in blood (M2 macrophages): significantly reduced | expression of Col1 in skin tissue [1]: significantly reduced | expression of IL-17 in skin tissue [1]: significantly reduced | expression of aSMA in skin tissue [1]: significantly reduced | number of CSV positive cells in skin tissue [1]: significantly reduced | expression of pSTAT6 and CD8 positive T cells in lung tissue ([2]; lung): significantly reduced | expression of pSTAT6 and CD8 positive T cells in skin tissue ([2]; skin): significantly reduced | M2/M1 expression ratio (spleen single cells): significantly reduced | expression of M2 macrophages (spleen single cells): significantly reduced | expression of Treg (spleen single cells): significantly increased | expression of pro-fibrosis T cells (IL-4+ T cells and IL-4+ and IL-17+ T cells) (spleen single cells): significantly reduced | thickness of the skin dermal layer [3]: significantly reduced | expression of fibrosis gene Col1a1 [4]: significantly decreased | expression of fibrosis gene TGF-β [4]: significantly decreased | expression of fibrosis gene α-SMA [4]: significantly decreased | IFNγ expression CD103 and CD8 positive cells in skin tissue [5]: no change | IL-17 expression CD103 and CD8 positive cells (CD8 TRM) in skin tissue [5]: significantly reduced | expression of CSV in the skin tissue [6]: significantly reduced | thickness of the skin dermis layer [6]: significantly reduced | histological score for pulmonary fibrosis [7]: significantly reduced | expression of Col1 in lung tissue [8]: significantly reduced | expression of IL-17 in lung tissue [8]: significantly reduced | expression of aSMA in lung tissue [8]: significantly reduced | number of CSV positive cells in lung tissue [8]: significantly reduced
